# Test results: ChEMBL document CHEMBL1159268, “The structures of new lanostane triterpenes from the fruiting bodies of Hebeloma senescens” (J Nat Prod, 1995)
# The source made the active and inactive calls. No cut-off for these calls is given here.
# What was measured:
# Escherichia coli = assay: Antibacterial activity against Escherichia coli; assay type: functional, organism-based
# [1] = Toxicity against Artemia salina; assay type: organism-based; details: in vivo, read-out: LD50 (the source's name)
# Candida albicans = assay: […] activity against Candida albicans; assay type: functional, organism-based
SMILES,Activity (Escherichia coli),LC50 [1] [µg/mL],Activity (Candida albicans)
CC(=O)O[C@H]1[C@H](OC(=O)C[C@@](C)(O)CC(=O)O)C[C@]2(C)C3=C(CC[C@H]2C1(C)C)[C@]1(C)CC[C@H]([C@H]2CC[C@H](C(C)(C)O)O[C@@H]2O)[C@@]1(C)[C@@H](O)C3 [HEBELOMIC ACID A],inactive,96.5,inactive
CC(=O)O[C@H]1CC2=C(CC[C@H]3C(C)(C)[C@@H](OC(C)=O)[C@H](OC(=O)C[C@@](C)(O)CC(=O)O)C[C@]23C)[C@]2(C)CC[C@H]([C@H]3CC[C@H](C(C)(C)O)O[C@@H]3O)[C@@]12C [HEBELOMIC ACID B],inactive,386,inactive
CC(=O)O[C@H]1O[C@@H](C(C)(C)O)CC[C@@H]1[C@H]1CC[C@@]2(C)C3=C(CC[C@]12C)[C@@]1(C)C[C@@H](OC(=O)C[C@@](C)(O)CC(=O)O)[C@H](OC(C)=O)C(C)(C)[C@@H]1CC3 [HEBELOMIC ACID F],inactive,19.7,inactive
